Broadly, the IC50 is the concentration needed to halve the response being measured. Low values mean higher potency, high ones lower potency.

Some results are limits rather than exact numbers.

One assay has as its target T1, METTL16 MTD–U6 snRNA Δ interaction (Homo sapiens, UniProt Q86W50).
T1 construct: METTL16 MTD (1–291) was subcloned to pOPINB plasmid; His tag followed by HRV 3C cleavage site (N, cleaved yes); made in house; host or cells: E. coli Rosetta (DE3)
T1 sequence (Q86W50 1-291): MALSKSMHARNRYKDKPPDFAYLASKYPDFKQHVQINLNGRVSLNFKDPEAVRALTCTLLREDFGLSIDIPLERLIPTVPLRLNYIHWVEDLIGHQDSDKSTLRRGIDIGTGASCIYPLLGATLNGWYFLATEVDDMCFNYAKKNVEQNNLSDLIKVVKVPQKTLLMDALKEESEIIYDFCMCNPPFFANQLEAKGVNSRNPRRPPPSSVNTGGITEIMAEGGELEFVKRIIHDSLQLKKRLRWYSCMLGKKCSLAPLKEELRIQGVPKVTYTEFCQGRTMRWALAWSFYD
Kind of assay: FP assay with Cy5-labeled U6 snRNA Δ. It is filed as binding.
Details: not given
The compound `CN1C(=O)C(=C2SC(NS(=O)(=O)c3cccc(C(=O)O)c3)=NC2=O)c2cc(Br)ccc21` [Compound 49] had an IC50 of 5.3 µM.

For the next assay, the target named is T2, METTL16–MAT2A-hp1 mRNA interaction (METTL16 MTD 1–291, FAM-labeled MAT2A-hp1 RNA) (Homo sapiens, UniProt Q86W50).
T2 sequence (Q86W50 1-291): T1 sequence (Q86W50 1-291)
Nature of the assay: Fluorescence polarization (FP) assay, disruption of METTL16 binding to FAM-MAT2A-hp1 RNA.
Details: not given
(Fluorescence polarisation rises when a labelled molecule tumbles more slowly, as on binding a larger partner.)
`COc1ccc(S(=O)(=O)NC2=NC(=O)C(=C3C(=O)Nc4c(Cl)cccc43)S2)cc1` [Compound 14] yielded an IC50 of 57.6 ± 1.3 µM.

For `COc1ccc(S(=O)(=O)NC2=NC(=O)C(=C3C(=O)Nc4c(F)cccc43)S2)cc1` [Compound 11], the IC50 is 28.9 ± 5.8 µM.

Take `O=C1N=C(NS(=O)(=O)c2ccc(F)cc2Cl)SC1=C1C(=O)Nc2ccc(Cl)cc21` [Compound 24]: the IC50 stood at 14 ± 1.5 µM.

As for `COc1ccc(S(=O)(=O)NC2=NC(=O)C(=C3C(=O)Nc4ccc(C)cc43)S2)cc1` [Compound 2], the IC50 is 24.3 ± 5.3 µM.

`O=C1N=C(NS(=O)(=O)c2ccc3ccccc3c2)SC1=C1C(=O)Nc2ccc(Cl)cc21` [Compound 31] returned an IC50 of 9.9 ± 1.3 µM.

Consider `O=C1N=C(NS(=O)(=O)c2ccc(F)cc2)SC1=C1C(=O)Nc2ccc(Cl)cc21` [Compound 33], for which the IC50 came out at 30.4 ± 10.5 µM.

Compound `COc1ccc(S(=O)(=O)NC2=NC(=O)C(=C3C(=O)Nc4ccc(OC)cc43)S2)cc1` [Compound 3] returned an IC50 of 23.8 ± 5.5 µM.

Regarding `Cc1ccc(S(=O)(=O)NC2=NC(=O)C(=C3C(=O)Nc4ccc(Cl)cc43)S2)cc1` [Compound 19], the 50% inhibitory concentration (IC50) is 13.5 ± 1.7 µM.

The compound `O=C1N=C(NS(=O)(=O)c2ccc(C(F)(F)F)cc2)SC1=C1C(=O)Nc2ccc(Cl)cc21` [Compound 30] displayed an IC50 of 13.6 ± 3.6 µM.

The compound `COc1ccc(S(=O)(=O)NC2=NC(=O)C(=Cc3cc4ccccc4[nH]3)S2)cc1` [Compound 18] had an IC50 of 23.2 ± 2.7 µM.

For the compound `COc1ccc(S(=O)(=O)NC2=NC(=O)C(=C3C(=O)N(C)c4cc(F)ccc43)S2)cc1` [Compound 17], the IC50 turned out to be 22.8 ± 2.3 µM.

As for `CN1C(=O)C(=C2SC(NS(=O)(=O)c3cccc(C(=O)O)c3)=NC2=O)c2cc(Br)ccc21` [Compound 49], the IC50 was 3 µM.

For the compound `O=C1N=C(NS(=O)(=O)c2ccccc2)SC1=C1C(=O)Nc2ccc(Cl)cc21` [Compound 20], the IC50 worked out at 15.7 ± 1.6 µM.

As for `CS(=O)(=O)NC1=NC(=O)C(=C2C(=O)Nc3ccc(Cl)cc32)S1` [Compound 29], the IC50 came to 36.2 ± 2.8 µM.

With `COc1ccc(S(=O)(=O)NC2=NC(=O)C(=C3C(=O)Nc4ccc(Br)cc43)S2)cc1` [Compound 8], the IC50 stood at 12.4 ± 2.8 µM.

For `COc1ccc(S(=O)(=O)NC2=NC(=O)C(=C3C(=O)Nc4ccc(F)cc43)S2)cc1` [Compound 13], the IC50 came to 26.9 ± 3.5 µM.

`COC(=O)c1ccc(S(=O)(=O)NC2=NC(=O)C(=C3C(=O)N(C)c4ccc(Br)cc43)S2)cc1` [Compound 48] came in with an IC50 of 29.4 ± 7.5 µM.

Regarding `COc1ccc(S(=O)(=O)NC2=NC(=O)C(=C3C(=O)N(C)c4ccc(F)cc43)S2)cc1` [Compound 16], the IC50 amounted to 15 ± 1 µM.

In the case of `O=C1CSC(NS(=O)(=O)c2ccccc2)=N1` [Compound Ia], the IC50 was > 100 µM.

As to `COc1ccc(S(=O)(=O)NC2=NC(=O)C(=C3C(=O)Nc4cc(Cl)ccc43)S2)cc1` [Compound 15], the IC50 is 26.4 ± 5 µM.

`O=C1N=C(NS(=O)(=O)c2cccc([N+](=O)[O-])c2)SC1=C1C(=O)Nc2ccc(Cl)cc21` [Compound 22] registered an IC50 of 12 ± 2 µM.

The compound `COc1ccc(S(=O)(=O)NC2=NC(=O)C(=C3C(=O)Nc4ccc([N+](=O)[O-])cc43)S2)cc1` [Compound 4] returned an IC50 of 8.2 ± 0.76 µM.

The assay is the same for the next values; noted with them: 50 nM METTL16 MTD, 5 nM FAM-MAT2A-hp1; given as 'inactive'.
Take `COc1ccc(S(=O)(=O)NC2=NC(=O)C(=C3C(=O)Nc4cc(F)ccc43)S2)cc1` [Compound 12]: the “IC50 class in the FP assay (MAT2A-hp1)” value is “inactive”.

Consider `O=C1N=C(NS(=O)(=O)c2ccc(-c3ccccc3)cc2)SC1=C1C(=O)Nc2ccc(Cl)cc21` [Compound 26], for which the “IC50 class in the FP assay (MAT2A-hp1)” value was “inactive”.

On to `O=C1N=C(NC(=O)c2ccc(F)cc2)SC1=C1C(=O)Nc2ccc(Cl)cc21` [Compound 37], for which the “IC50 class in the FP assay (MAT2A-hp1)” value is “inactive”.

Consider `Cc1ccc(C(=O)NC2=NC(=O)C(=C3C(=O)Nc4ccc(Cl)cc43)S2)cc1` [Compound 34], for which the “IC50 class in the FP assay (MAT2A-hp1)” value was “inactive”.

Regarding `COc1ccc(S(=O)(=O)NC2=NC(=O)C(=C3C(=O)N(c4ccccc4)c4ccccc43)S2)cc1` [Compound 10], the “IC50 class in the FP assay (MAT2A-hp1)” value was “inactive”.

Regarding `COc1ccc(C(=O)NC2=NC(=O)C(=C3C(=O)Nc4ccc(Cl)cc43)S2)cc1OC` [Compound 36], the “IC50 class in the FP assay (MAT2A-hp1)” value is “inactive”.

`CC(C)(C)c1ccc(S(=O)(=O)NC2=NC(=O)C(=C3C(=O)Nc4ccc(Cl)cc43)S2)cc1` [Compound 23]: the “IC50 class in the FP assay (MAT2A-hp1)” value was “inactive”.

As for `COc1ccc(S(=O)(=O)NC2=NC(=O)C(=C3C(=O)Nc4ccc(Cl)cc43)O2)cc1` [Compound 38], the “IC50 class in the FP assay (MAT2A-hp1)” value is “inactive”.

Turning to `O=C1CSC(NS(=O)(=O)c2ccccc2)=N1` [Compound Ia], the “IC50 class in the FP assay (MAT2A-hp1)” value was “inactive”.

Take `O=C1N=C(NS(=O)(=O)c2ccc(C3CCCCC3)cc2)SC1=C1C(=O)Nc2ccc(Cl)cc21` [Compound 25]: the “IC50 class in the FP assay (MAT2A-hp1)” value was “inactive”.

On to `COc1ccc(C(=O)NC2=NC(=O)C(=C3C(=O)Nc4ccc(Cl)cc43)S2)cc1` [Compound 35], for which the “IC50 class in the FP assay (MAT2A-hp1)” value is “inactive”.

Still in this assay, the particulars now being: 42 compared to compound 4; methyl ester 48 compared to the carboxylic acid analogue.
Consider `COC(=O)c1ccc(S(=O)(=O)NC2=NC(=O)C(=C3C(=O)N(C)c4ccc(Br)cc43)S2)cc1` [Compound 48], for which the “fold decrease in inhibitory activity (FP assay)” value worked out at 20 fold.

The same assay, now with this note: FAM-MAT2A-hp1 RNA.
On to `COc1ccc(S(=O)(=O)NC2=NC(=O)C(=C3C(=O)Nc4ccc(Cl)cc43)O2)cc1` [Compound 38], for which the “inhibitory activity against METTL16 in the FP assay, in words” value is on record as “did not show inhibitory activity”.

For the origin of these results see article PMC11040665, “Aminothiazolone Inhibitors Disrupt the Protein–RNA Interaction of METTL16 and Modulate the m^6A RNA Modification” (JACS Au, 2024).
